The values that follow come from patent EP4799701A2, “PYRIMID-2-YL-PYRAZOLE COMPOUNDS AS IRAK INHIBITORS” (Rigel Pharmaceuticals, Inc., priority 2022, dated 2023).

Several values for one entry are separate records, joined by “and”; a condition that tells them apart may be missing. Identical values can stand only once.

The nature of series [1]: Rat brain homogenate binding, equilibrium dialysis (RED). Format: in vitro ADME. The method, then:
(§1) Brain and plasma drug binding were performed by equilibrium dialysis using the Rapid Equilibrium Dialysis (RED) device. Briefly, 300 µL of plasma or brain homogenate (1 brain /3 buffer) containing drug (5 µM) was equilibrated (4-18 h) against 500 µL of buffered saline. After incubation, the concentration of drug in plasma/brain homogenate and buffer was determined by LC-MS/MS.
Two runs of rat brain homogenate binding with I-1 compared to Comparison-1. I-1 is approximately 10-fold more free in rat brain than Comparison-1.

Series [2] relates to TLR4-induced IL-23 and TNF-α. Kind of series: TLR4 induced TNF-α in THP-1 cells. To be noted: human THP-1 cells; result in words. Format: cell-based. How it is done: Assay Protocol: TLR4 and TLR2 induced cytokines in THP-1 cells. […]
THP-1 cells (100K in 100 µL/well) were primed with 25 ng/mL IFN-γ for 18 hours at 37°C, 5% CO2. […] IL-23p 19 or TNF-α protein in the supernatant were measured by sandwich ELISA. […] The plates were read with a luminometer, and the chemiluminescence values were entered into Athena (Rigel) for curve fitting, EC50 calculation, and database storage.

Series [3] has as its system TLR7-induced TNF-α. The series can be described thus: TLR7-induced TNF-α in human PBMC (resiquimod). Type of series: cell-based. The settings on record: human PBMCs; result in words. The method, then:
Assay Protocol: TLR7-induced TNF-α in human Peripheral Blood Mononuclear Cells (PBMC).
• Corning™ Costar™ 96-Well, Cell Culture-Treated, U-Shaped-Bottom Microplate (Fisher, Cat# 07-200-95) • Human PBMC (ALL Cells, Cat# PB002) • Resiquimod (InvivoGen, Cat No. tlrl-r848) • Human TNF-α DuoSet ELISA Kit (R&D Systems, Cat# DY210) • Recombinant Human IFN-β (Peprotech, Cat# 300-02BC) • RPMI with 10% FBS • Axygen 96well, 1.1 mL, sterile (VWR International, Cat# 47734-788)
Human peripheral blood mononuclear cells (PBMC) were seeded at 100,000 cells per well in 100 µL of RPMI with 10% FCS and primed overnight with 8 ng/ml of IFN-β at 37 °C, 5% CO2. Compound was serially diluted in DMSO from 2 mM in 3-fold dilutions, and then diluted 1:100 in RPMI 1640 complete media with 10% FBS (2 x stock). The PBMCs were pre-incubated with test compound for 1 hour at 37 °C, 5% CO2 by adding 100 µL of RPMI media containing 2x concentrated test compound per well (0.5% final DMSO concentration).
The PBMCs were stimulated with resiquimod (10 µL per well of 21x concentrated resiquimod solution in RPMI media to give a final concentration of 0.1 µg/ml) at 37 °C, 5% CO2 for an additional 18 hours. 100 µL of supernatant per well was harvested to measure TNF-α. TNF-α was quantitated using DuoSet ELISA Kit per manufacturer's protocol.

For series [4], the system named is IL-1β-induced production of the cytokine IL-6. Kind of series: IL-1β-induced IL-6 in primary human endothelial cells. To be noted: result in words. Type of series: cell-based.
In another series the test system is TLR2- induced TNF-α. Kind of series: TLR2-induced TNF-α in human primary dendritic cells. Format: cell-based. To be noted: human primary dendritic cells (DC); result in words.
In a further series the test system is TLR4-dependent. Kind of series: TLR4-dependent cytokine production in mouse macrophages. Type of series: cell-based. To be noted: result in words.
A short description of series [5]: Plasma protein binding, free drug comparison across species. Type of series: in vitro ADME. The settings on record: free drug in rat, dog, monkey and human proteins. How it is done: as §1
Higher free drug in plasma and brain allow for more drug to interact with the target. [drawing 34]
From a free drug perspective compound I-1 was approximately 6-times more free than Comparision-1 in rat, dog, monkey and human proteins.

For series [6], the system named is TLR7-induced TNF-α. Kind of series: TNF-α in human monocyte-derived dendritic cells (gardiquimod). The settings on record: human primary dendritic cells (DC); result in words. Format: cell-based. How it is done:
After 2 hours, the media including floating cells was carefully removed and 12 ml of fresh RPMI media (10% FBS) containing GM-CSF (100 ng/ml) and IL-4 (20 ng/ml) were added to the adherent monocytes.
The differentiated dendritic cells (DC) were harvested by centrifugation (1200 rpm/5 min).

As to `CCO[C@H]1CC[C@H](n2cc(NC(=O)c3csc(-c4cn[nH]c4)n3)c(-c3ncccn3)n2)CC1` [Compound I-1, N-(1-((1r,4r)-4-ethoxycyclohexyl)-3-(pyrimidin-2-yl)-1H-pyrazol-4-yl)-2-(1H-pyrazol-4-yl)thiazole-4-carboxamide], the “more free in rat brain than Comparison-1” value in series [1] (rat brain homogenate) is “approximately 10 fold”. In series [1] (two runs, brain homogenate 1 brain /3 buffer, drug 5 µM, 5 µM), the “rat brain homogenate binding (free drug)” value was 1.06% and 1.43%. In addition, the “TLR4-induced TNF-α production” value in series [2] is “inhibits”. In the series on TLR7-induced TNF-α [3], the TLR7-dependent cytokine production result is given as “potent inhibitor”. Further, in series [4], the “IL-1β-induced production of the cytokine IL-6” value is “potently inhibits”. Moreover, the “TLR2- induced TNF-α production” value in the series on TLR2- induced TNF-α is listed as “blocks”. Also, the TLR4-dependent cytokine production entry in the series with TLR4-dependent is “potent inhibitor”. The “more free than Comparision-1” value in series [5] was “approximately 6 times”. Moreover, in the series on TLR7-induced TNF-α [6], the “TLR7- induced TNF-α production” value is recorded as “blocks”.
